Experimental data published in patent publication US20030171398A1, “Food compositions for reducing insulin resistance” (Unilever Patent Holdings BV, priority 2001, published 2003).

How the values were obtained:
[1] = system: Human skeletal muscle cells (SMCs); assay: Glucose uptake assay in human skeletal muscle cells ([3H]2-deoxyglucose); format: cell-based
Experimental: Human skeletal muscle cells (SMCs) were obtained from TCS 2000 Ltd. Cells were seeded into 12-well plates at a density of 3×10^4 cells/well and then grown and differentiated as instructed by TCS. Differentiated human SMCs were incubated, for 32 hours at 37° C./5% CO2, in differentiation media (supplied by TCS) supplemented with an appropriate amount of agent or vehicle. Media was then changed to serum free media (MEM-alpha media, 2 mM glutamine, 100 iu/ml penicillin and 100 μg/ml streptomycin), supplemented as before, and the cells incubated for a further 16 hours.
Cells were then washed 3×with Krebs Ringer Phosphate (KRP) buffer [136 mM NaCl, 4.7 mM KCl, 1.25 mM CaCl2, 1.25 mM MgSO4, 10 mM sodium phosphate buffer, pH 7.4] and incubated in KRP (0.5 ml/well) for 30 minutes at 37° C./5% CO2. After 30 minutes incubation the glucose uptake assay was initiated by addition of 25 μl KRP containing 5 μCi [^3H]2-deoxyglucose and 1 mM deoxyglucose. After 10 minutes the reaction was terminated by washing the cells 3×with ice-cold PBS. Cells were then solublised with 125 μl/well of 1% Triton X-100 for 20 minutes at 37° C. Radioactive incorporation was measured by scintillation counting. 100 μl of each sample was analysed.

human PPARγ1 = target: T1, human PPARγ1 (Homo sapiens, UniProt P37231); assay: PPARgamma reporter gene assay (luciferase) in transfected cos-7 cells; format: cell-based
T1 construct: expressed in transfected cells; host or cells: cos-7 cells (ECACC No. 87021302)
T1 sequence (P37231 1-477 isoform P37231-2): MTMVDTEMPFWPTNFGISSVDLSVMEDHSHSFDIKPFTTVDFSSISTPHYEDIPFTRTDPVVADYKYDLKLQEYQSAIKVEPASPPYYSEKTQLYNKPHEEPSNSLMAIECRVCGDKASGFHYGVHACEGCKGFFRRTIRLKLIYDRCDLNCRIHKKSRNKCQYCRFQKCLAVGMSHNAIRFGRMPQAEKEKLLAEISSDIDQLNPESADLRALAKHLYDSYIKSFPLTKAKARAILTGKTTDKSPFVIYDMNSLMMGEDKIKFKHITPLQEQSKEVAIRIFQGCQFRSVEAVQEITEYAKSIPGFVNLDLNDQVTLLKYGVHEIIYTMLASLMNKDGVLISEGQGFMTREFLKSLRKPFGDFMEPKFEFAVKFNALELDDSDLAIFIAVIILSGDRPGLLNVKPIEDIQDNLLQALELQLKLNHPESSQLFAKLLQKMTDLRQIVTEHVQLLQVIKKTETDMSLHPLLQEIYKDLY
T1 sequence (P19793 1-462 partner): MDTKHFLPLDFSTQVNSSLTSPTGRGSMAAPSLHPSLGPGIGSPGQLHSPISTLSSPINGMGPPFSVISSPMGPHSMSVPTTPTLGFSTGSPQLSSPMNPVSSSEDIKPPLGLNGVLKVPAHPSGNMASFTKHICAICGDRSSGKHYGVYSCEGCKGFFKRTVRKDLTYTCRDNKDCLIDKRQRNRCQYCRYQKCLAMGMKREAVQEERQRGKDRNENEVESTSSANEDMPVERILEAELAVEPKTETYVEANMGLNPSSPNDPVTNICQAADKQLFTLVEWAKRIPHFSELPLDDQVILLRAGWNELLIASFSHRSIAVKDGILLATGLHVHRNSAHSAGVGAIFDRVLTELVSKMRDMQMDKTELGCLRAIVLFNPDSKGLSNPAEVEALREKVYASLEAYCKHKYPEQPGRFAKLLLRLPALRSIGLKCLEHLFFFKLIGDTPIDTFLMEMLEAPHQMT
Experimental: PPARgamma receptor activity is determined by a suitable reporter gene assay. Preferably the reporter gene assay used comprises the transcription induction of a luciferase gene. Levels of firefly luciferase (normalised against the renilla luciferase control) provide a measure of reporter gene activity which in turn reflects the level of activation.
This assay is based on that described by Kliewer et al (Nature 358 771-774 1992). In brief, cos-7 cells (ECACC No. 87021302) were seeded in 24-well plates at a density of 0.325×10^5 cells/well. Cells were grown overnight at 37° C./5% CO2 in DMEM containing 10% FCS, 2 mM L-glutamine, 100 iu/ml penicillin and 100 µg/ml streptomycin. Cells were washed with transfection media (DMEM containing 2 mM L-glutamine) then transiently transfected with 4 plasmids: a PPAR-responsive firefly luciferase reporter gene (pPPRE3TK-luc); mammalian expression plasmids (pcDNA3/hPPARγ1 and pRSV/hRXRα) containing human PPARγ1 and RXRα cDNAs respectively and a control plasmid (PRLTK, Promega) which constitutatively expresses the renilla luciferase gene. Transfection was performed using Lipofectamine (Gibco Brl) as directed by the manufacturers. Transfected cells were incubated for 6 h at 37° C./5% CO2 and then for a further 46 hours in the presence or absence of ligand. After 46 hours cell lysates were prepared and the level of firefly and renilla luciferase determined using the Dual luciferase assay system (Promega) and a MLX microtitre plate luminometer (Dynex). The level of firefly luciferase (normalised against the renilla luciferase control) provides a measure of reporter gene activity. This in turn reflect the level of PPARγ activation.
A double-stranded PPAR-binding site was prepared using the ‘Klenow fill-in’ technique. A 113 bp oligonucleotide (PPRE1/3) containing a triplet of PPREs and appropriate restriction endonuclease sites was designed. PPRE1/3 and a 20 bp oligonucleotide (PPRE1/3R) complementary to the 3′ region of PPRE1/3 were synthesised.
In a final volume of 20 μl 2 μg of PPRE1/3R was annealed to 2 μg of PPRE1/3 by boiling for 5 minutes and then cooling slowly to room temperature. Annealed PPRE1/3R was used to prime second-strand DNA synthesis. A 30 μl reaction mix containing 20 μl annealed DNA, 1.5 μl 2 mM dNTPs, 1×Klenow Buffer and 5 units DNA Polymerase I (Klenow fragment) was incubated for 1 hour at 37° C. and then 10 minutes at 75° C. A 5 μl sample of the synthesised product was analysed on a 3% agarose gel. The remaining product was purified by ethanol precipitation and resuspended in sterile water. The double-stranded PPAR-binding site (insert) was digested with MluI and BgllI for 1 hour at 37° C. and then purified by ethanol precipitation. 1 μg of the vector pNF-κB-luc (Clontech) was digested with MluI and BgllI for 1 hour at 37° C. and then analysed on a 1% agarose gel Digested DNA was purified from the gel using a Qiaquick Gel Extraction Kit (Qiagen). Digested vector and insert DNA were incubated for 4 hours at room temperature in a volume of 15 μl containing 1×ligase buffer and 5 units T4 DNA ligase. The full ligation reaction was used to transform competant E.coli JM109 cells (Promega).

[2] = 1.25 μg/ml, purified components, Table 8
[3] = 2.5 μg/ml, purified components, Table 8
[4] = 5 μg/ml, purified components, Table 8

| Structure (SMILES) | Activation of PPARgamma in the reporter gene assay (in words) (human PPARγ1) | Reporter gene activity (Fold-induction relative to the vehicle) Mean (human PPARγ1; [2]) [Fold-induction] | Reporter gene activity (Fold-induction relative to the vehicle) Mean (human PPARγ1; [3]) [Fold-induction] | Reporter gene activity (Fold-induction relative to the vehicle) Mean (human PPARγ1; [4]) [Fold-induction] | Reporter gene activity (Fold-induction relative to the vehicle) Mean (human PPARγ1; 5 μg/ml, Table 9) [Fold-induction] | [3H] 2-deoxyglucose uptake (Fold-induction relative to vehicle) Mean ([1]; 2.5 uM) [Fold-induction] | [3H] 2-deoxyglucose uptake (Fold-induction relative to vehicle) Mean ([1]; 5 uM) [Fold-induction] |
| --- | --- | --- | --- | --- | --- | --- | --- |
| CC1(COc2ccc(CC3SC(=O)NC3=O)cc2)CCCCC1 (centres unmarked) [Ciglitizone] | – | – | – | – | – | 1.3 | 3.3 |
| C/C=C1/C(=O)C[C@H]2[C@@H]3CCC4=CC(=O)CC[C@]4(C)[C@H]3CC[C@]12C [E-guggulsterone, reference compound] | neither the E-nor the Z-form of guggulsterone can activate PPARgamma | – | – | – | 0.4 | – | – |
| C/C=C1\C(=O)C[C@H]2[C@@H]3CCC4=CC(=O)CC[C@]4(C)[C@H]3CC[C@]12C [Z-guggulsterone, reference compound] | neither the E-nor the Z-form of guggulsterone can activate PPARgamma | – | – | – | 0.5 | – | – |

Second part, led by results:

| Activation of PPARgamma in the reporter gene assay (in words) (human PPARγ1) | Reporter gene activity (Fold-induction relative to the vehicle) Mean (human PPARγ1; [2]) [Fold-induction] | Reporter gene activity (Fold-induction relative to the vehicle) Mean (human PPARγ1; [3]) [Fold-induction] | Reporter gene activity (Fold-induction relative to the vehicle) Mean (human PPARγ1; [4]) [Fold-induction] | Reporter gene activity (Fold-induction relative to the vehicle) Mean (human PPARγ1; 5 μg/ml, Table 9) [Fold-induction] | Structure (SMILES) | [3H] 2-deoxyglucose uptake (Fold-induction relative to vehicle) Mean ([1]; 2.5 uM) [Fold-induction] | [3H] 2-deoxyglucose uptake (Fold-induction relative to vehicle) Mean ([1]; 5 uM) [Fold-induction] |
| --- | --- | --- | --- | --- | --- | --- | --- |
| able to activate PPARgamma | 2.56 | 3.40 | 8.01 | – | C/C(=C\CC/C(C)=C/CCC1[C@](C)(O)CC[C@H]2C(C)(C)C(=O)CC[C@]12C)CC/C=C(\C)C(=O)O (stereo partly drawn) [Commipheric acid, 13-(decahydro-2-hydroxy-2,5,5,8a-tetramethyl-6-oxo-1-naphthalenyl)-2,6,10-trimethyl-, [1R-[1α(2E,6E,10E),2β,4aβ,8aα]]-2,6,10-tridecatrienoic acid] | – | – |
| activate PPARgamma to a lesser degree | 3.41 | 4.97 | – | – | C/C(=C\CC/C(C)=C/CC/C(C)=C/CC[C@@H]1[C@@]2(C)CCC(=O)C(C)(C)[C@@H]2CC[C@@]1(C)O)CO [Commipherol, Octahydro-6-hydroxy-5-(13-hydroxy-4,8,12-trimethyl-3,7,11-tridecatrienyl)-1,1,4a,6-tetramethyl-, [4aS-[4aα,5α(3E,7E,11E),6β,8aβ]]-2(1H)-naphthalenone] | – | – |
| activate PPARgamma to a lesser degree | 1.14 | 1.74 | 3.87 | – | C/C(=C\CC/C(C)=C/CC/C(C)=C/CCC1C(C)(O)CCC2C(C)(C)C(O)CCC12C)CO [Myrrhanol A, Decahydro-5-[(3E,7E,11E)-13-hydroxy-4,8,12-trimethyl-3,7,11-tridecatrienyl]-1,1,4a,6-tetramethyl-, (2S,4aS,5R,6R,8aS)-2,6-naphthalenediol] | – | – |
